Each structure is given as a SMILES string.

Holding throughout (assay type): cell-based, human
In test [1] the test system is MCF-7 cells. Description: Sulforhodamine B antiproliferative assay, MCF-7. As to the method: The antiproliferative effect of the isolated compounds (1–11) was investigated by the sulforhodamine B assay against human triple-negative breast cancer cell lines (MDA-MB-468 and MDA-MB-231) and breast ductal carcinoma cells (MCF-7) and the non-tumorigenic fibroblast (HFF-1) and breast cell lines (MCF12A). The IC50 values were determined after 48 h of treatment (Table 1).
Human breast adenocarcinoma MDA-MB-231, MDA-MB-468, and MCF-7 cell lines and non-tumorigenic foreskin fibroblast (HFF-1) and breast (MCF12A) cell lines were purchased from American Type Culture Collection (ATCC, Rockville, MD, USA). All cancer cell lines, except MCF12A, were routinely cultured in RPMI-1640 medium with glutamine from Corning (VWR, Carnaxide, Portugal) supplemented with 10% fetal bovine serum (FBS) from Biowest (Labclinics, Barcelona, Spain). MCF12A cells were cultured in a 1:1 mixture of Dulbecco’s modified Eagle’s medium and Ham’s F12 medium, 20 ng/mL human epidermal growth factor, 100 ng/mL cholera toxin, 0.01 mg/mL bovine insulin, and 500 ng/mL hydrocortisone and supplemented with 10% FBS. All cells were maintained in a humidified incubator at 37 °C with 5% CO2. All cells were routinely tested for mycoplasma contamination using the MycoAlertTM PLUS detection kit (Lonza, Basel, Switzerland).
Human cell lines were seeded in 96-well plates at a density of 5.0 × 10^3 (MDA-MB-231, MCF-7, HFF-1, and MCF12A) and 7.5 × 10^3 (MDA-MB-468) cells/well and allowed to adhere for 24 h. Cells were treated with serial dilutions of compounds (ranging from 0.1 to 40 μM) for an additional 48 h. Effect on cell proliferation was measured by sulforhodamine B assay, as described in [33], and the half-maximal inhibitory concentration (IC50) was then determined for each cell line using the GraphPad Prism software version 7.0 (La Jolla, CA, USA).

Test [2] has as its system MDA-MB-231 cells. Description: Annexin V-FITC apoptosis assay. Particulars: 16 µM, 48 h, vs vehicle control. The protocol: Figure 2 Compound 7 induced cell cycle arrest, apoptosis, and ROS production, in MDA-MB-231 cells. […] (B) Effect of 16 µM of compound 7 on cell cycle progression after 48 h of treatment in MDA-MB-231 cells; the percentage of cells in each phase of the cell cycle was analyzed by flow cytometry, using PI; data are mean ± SEM of three independent experiments. […] (C) Effect of 16 µM of compound 7 on apoptosis after 48 h of treatment; the percentage of Annexin-positive cells was analyzed by flow cytometry using PI and Annexin-V staining; data are mean ± SEM of three independent experiments. […] (D) Effect of 16 µM of compound 7 on mitochondrial ROS generation after 24 h of treatment; data are mean ± SEM of three independent experiments (* p < 0.05, unpaired Student’s t-test). […] (F) The graph represents the quantification of protein expression levels relative to DMSO; data are mean ± SD of three independent experiments. The ability of compound 7 to induce apoptosis in this cell line was also assessed by cytometry, using the Annexin V-FITC assay after 48 h of treatment. […]
The analyses were performed basically as described in [33]. […] The cells were then analyzed by flow cytometry, and cell cycle phases were identified and quantified using the FlowJo × 10.0.7 Software (Treestar, Ashland, OR, USA). […]

Test [3] concerns MDA-MB-231 cells. Description: Mitochondrial ROS generation (MitoSOX). Particulars: 16 µM, 24 h. The protocol: Figure 2 Compound 7 induced cell cycle arrest, apoptosis, and ROS production, in MDA-MB-231 cells. […] (B) Effect of 16 µM of compound 7 on cell cycle progression after 48 h of treatment in MDA-MB-231 cells; the percentage of cells in each phase of the cell cycle was analyzed by flow cytometry, using PI; data are mean ± SEM of three independent experiments. […] (C) Effect of 16 µM of compound 7 on apoptosis after 48 h of treatment; the percentage of Annexin-positive cells was analyzed by flow cytometry using PI and Annexin-V staining; data are mean ± SEM of three independent experiments. […] (F) The graph represents the quantification of protein expression levels relative to DMSO; data are mean ± SD of three independent experiments. The ability of compound 7 to induce apoptosis in this cell line was also assessed by cytometry, using the Annexin V-FITC assay after 48 h of treatment. […]
For mitochondrial ROS generation assessment, MDA-MB-231 cells were seeded in 6-well plates at a density of 1.5 × 10^5 cells/well for 24 h, followed by treatment with 16 µM of compound 7 for an additional 24 h. Thereafter, cells were incubated with 3 μM MitoSOX (Thermo Fisher Scientific, Invitrogen, Portugal) for 30 min at 37 °C and analyzed by flow cytometry.

A word on the IC50: it is the point on the concentration scale where inhibition reaches its midpoint. Turning to `COc1cc2c(cc1O)C(=O)OC1[C@@H](O)C=C3CCN(C)C3[C@]21O` (stereo partly drawn) [Compound 7, 2α-10bα-dihydroxy-9-O-demethylhomolycorine], the IC50 in test [1] (Homo sapiens, MCF7, 48 h, sulforhodamine B assay, 48 h of treatment, read-out: IC50 MCF-7 (C)) amounted to 6.8 ± 0.2 µM. The “SI D/C” value in test [1] (selectivity index, MCF12A vs MCF-7) is 0.82. Further, in test [2], the “percentage of apoptotic (Annexin-positive) cells” value was “significant increase in the percentage of apoptotic cells”. Moreover, in test [3], the “mitochondrial ROS production” value is “increased ROS production”.

For the origin of these results see paper PMC9501014, “Amaryllidaceae-Type Alkaloids from Pancratium maritimum: Apoptosis-Inducing Effect and Cell Cycle Arrest on Triple-Negative Breast Cancer Cells” (Molecules, 2022).
